Data reported in ChEMBL document CHEMBL1201862, “PubChem BioAssay data set” (2004).
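A five-concentration, 48-hour dose response in 96-well plates underlies each endpoint, interpolated linearly between surrounding concentrations. The concentration for 50% growth inhibition is given as GI50.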 Activity calls are given as the source filed them. Cut-off read from the data, not from the text of the source: active = GI50 up to about 1.1 µM and inactive = higher.

What was measured:
Assay in all cases: growth of human tumour cells (NCI), 48 h
UACC-257 = system: UACC-257
SNB-78 = system: SNB-78
SK-OV-3 = system: SK-OV-3
SF-295 = system: SF-295
NCI-H460 = system: NCI-H460
U-251 = system: U-251
OVCAR-3 = system: OVCAR-3
LOX IMVI = system: LOX IMVI
SF-268 = system: SF-268
SW-620 = system: SW-620
NCI-H522 = system: NCI-H522
786-0 = system: 786-0
Malme-3M = system: Malme-3M
SK-MEL-28 = system: SK-MEL-28
IGROV-1 = system: IGROV-1
UACC-62 = system: UACC-62
DLD-1 = system: DLD-1
NCI-H226 = system: NCI-H226
KM-20L2 = system: KM-20L2
COLO 205 = system: COLO 205
TK-10 = system: TK-10
LXFL 529 = system: LXFL 529
OVCAR-8 = system: OVCAR-8
SF-539 = system: SF-539
CCRF-CEM = system: CCRF-CEM
HOP-62 = system: HOP-62
A498 = system: A498
SN12C = system: SN12C
DMS-114 = system: DMS-114
M19-MEL = system: M19-MEL
A549 = system: A549
OVCAR-5 = system: OVCAR-5
HCC 2998 = system: HCC 2998
K562 = system: K562
UO-31 = system: UO-31
DMS-273 = system: DMS-273
MOLT-4 = system: MOLT-4
KM12 = system: KM12
OVCAR-4 = system: OVCAR-4
M14 = system: M14
HT-29 = system: HT-29
RPMI-8226 = system: RPMI-8226
HL-60 = system: HL-60
HCT-15 = system: HCT-15
ACHN = system: ACHN
SR = system: SR
RXF 393 = system: RXF 393
SK-MEL-2 = system: SK-MEL-2
SNB-19 = system: SNB-19
CAKI-1 = system: CAKI-1
NCI-H23 = system: NCI-H23
EKVX = system: EKVX

`CCCCCCCCCCCCCB(O)O` was tested, and the GI50 (UACC-257) was > 100 µM (inactive), the GI50 (SNB-78) was 58.1 µM (inactive) and the GI50 (SK-OV-3) was > 100 µM (inactive). The GI50 (SF-295) was > 100 µM (inactive), the GI50 (NCI-H460) was 85.5 µM (inactive) and the GI50 (U-251) was 60.4 µM (inactive). For the same molecule, the GI50 (OVCAR-3) was 50.7 µM (inactive), the GI50 (LOX IMVI) was > 100 µM (inactive) and the GI50 (SF-268) was 69.2 µM (inactive). The GI50 (SW-620) was 61.5 µM (inactive), the GI50 (NCI-H522) was 51.3 µM (inactive) and the GI50 (786-0) was 95.5 µM (inactive). The GI50 (Malme-3M) was > 100 µM (inactive), the GI50 (SK-MEL-28) was > 100 µM (inactive) and the GI50 (IGROV-1) was > 100 µM (inactive). The GI50 (UACC-62) was > 100 µM (inactive), the GI50 (DLD-1) was 65.2 µM (inactive) and the GI50 (NCI-H226) was 96.2 µM (inactive). The GI50 (KM-20L2) was 60.7 µM (inactive), the GI50 (COLO 205) was > 100 µM (inactive) and the GI50 (TK-10) was > 100 µM (inactive). The GI50 (LXFL 529) was 81.8 µM (inactive), the GI50 (OVCAR-8) was > 100 µM (inactive) and the GI50 (SF-539) was > 100 µM (inactive). The GI50 (CCRF-CEM) was 57.8 µM (inactive), the GI50 (HOP-62) was > 100 µM (inactive) and the GI50 (A498) was 50.2 µM (inactive). For the same molecule, the GI50 (SN12C) was 66.2 µM (inactive), the GI50 (DMS-114) was 65.5 µM (inactive) and the GI50 (M19-MEL) was > 100 µM (inactive).

In the case of `COc1ccc2c3c([nH]c2c1[N+](=O)[O-])C(C)N(Cc1ccc([N+](=O)[O-])cc1)CC3` (configuration not stated), the GI50 (UACC-257) is reported as 12.9 µM (inactive), the GI50 (A549) is reported as > 100 µM (inactive) and the GI50 (OVCAR-5) is reported as 31.6 µM (inactive). The GI50 (HCC 2998) was 17.2 µM (inactive), the GI50 (K562) was 3.22 µM (inactive) and the GI50 (SNB-78) was 26.2 µM (inactive). The GI50 (UO-31) was 13.2 µM (inactive), the GI50 (SF-295) was 16.3 µM (inactive) and the GI50 (DMS-273) was 6.24 µM (inactive). For the same molecule, the GI50 (MOLT-4) was 2.99 µM (inactive), the GI50 (KM12) was 14.2 µM (inactive) and the GI50 (NCI-H460) was 11.8 µM (inactive). The GI50 (OVCAR-4) was 2.16 µM (inactive), the GI50 (U-251) was 15.7 µM (inactive) and the GI50 (OVCAR-3) was 14 µM (inactive). For the same molecule, the GI50 (M14) was 8.43 µM (inactive), the GI50 (HT-29) was 8.75 µM (inactive) and the GI50 (RPMI-8226) was 4.12 µM (inactive). The GI50 (HL-60) was 3.22 µM (inactive), the GI50 (LOX IMVI) was 4.74 µM (inactive) and the GI50 (SF-268) was 2.48 µM (inactive). The GI50 (SW-620) was 15.1 µM (inactive), the GI50 (HCT-15) was 15.6 µM and the GI50 (NCI-H522) was 3.96 µM (inactive). For the same molecule, the GI50 (ACHN) was 18.1 µM (inactive), the GI50 (786-0) was > 100 µM (inactive) and the GI50 (SR) was 5.5 µM (inactive). For the same molecule, the GI50 (RXF 393) was 10.9 µM (inactive), the GI50 (SK-MEL-28) was 11.9 µM (inactive) and the GI50 (SK-MEL-2) was 14.5 µM (inactive). The GI50 (IGROV-1) was 39.8 µM (inactive), the GI50 (UACC-62) was 15.8 µM (inactive) and the GI50 (NCI-H226) was 18.1 µM (inactive). The GI50 (KM-20L2) was 10.8 µM (inactive), the GI50 (COLO 205) was 14 µM (inactive) and the GI50 (TK-10) was 29.6 µM (inactive). For the same molecule, the GI50 (LXFL 529) was 5.7 µM (inactive), the GI50 (SNB-19) was 19.3 µM (inactive) and the GI50 (CAKI-1) was 3.89 µM (inactive). The GI50 (OVCAR-8) was 16.2 µM (inactive), the GI50 (SF-539) was > 100 µM (inactive) and the GI50 (NCI-H23) was 6.7 µM (inactive). The GI50 (CCRF-CEM) was 6.76 µM (inactive), the GI50 (HOP-62) was > 10 µM (inactive) and the GI50 (A498) was 14.8 µM (inactive). The GI50 (EKVX) was 37.6 µM (inactive) and the GI50 (SN12C) was 18.5 µM (inactive).
